Here are results for 103 compounds from ChEMBL document CHEMBL3507680, “University of Dundee, Gates Library screen for HepG2 cell viability”.

The structures appear in SMILES notation.

The nature of the data set: Human HepG2 cell viability assay in 384 well format. The class given is toxicity, cell-based. Further details: dose 125 nL, time 70.5 hour; cytotoxicity at 70.5 h: concentration not given beside the values. The following applies: HepG2 cells, read-out: Inhibition.
In the case of `Cn1cc(NS(=O)(=O)CC2CCCCO2)cn1` (stereo not drawn), the cytotoxicity at 70.5 h is -8.18%.

For the compound `O=S(=O)(CC1CCCCO1)Nc1cnn(CC(F)F)c1` (stereo not drawn), the cytotoxicity at 70.5 h was -7.78%.

For `Cn1nc2c(cc1=O)CN(c1ncnc3sccc13)CC2`, the cytotoxicity at 70.5 h was 5.63%.

Regarding `CCn1nc2c(cc1=O)CN(c1ncnc3sccc13)CC2`, the cytotoxicity at 70.5 h is -11.4%.

For `Cc1nc(CNc2cccc(Cl)c2Cl)cs1`, the cytotoxicity at 70.5 h worked out at 16.5%.

`CC(C)(C)CCCC(=O)Nc1ccnn1C1CCS(=O)(=O)C1` (stereo not drawn): the cytotoxicity at 70.5 h is -6.88%.

Regarding `Cc1c(COC(C)C)cccc1NC(=O)N1CCCC(CO)C1` (stereo not drawn), the cytotoxicity at 70.5 h was -3.17%.

Consider `Cc1nc(C(=O)NS(=O)(=O)c2cccc(C#N)c2)cs1`, for which the cytotoxicity at 70.5 h turned out to be 17.6%.

For the compound `COc1cc(CNc2nc(N3CCOCC3)ns2)cc(OC)c1OC`, the cytotoxicity at 70.5 h is -5.63%.

For `Cc1csc(N2CCCN(c3cc(C)nc(C)c3C#N)CC2)n1`, the cytotoxicity at 70.5 h was -4%.

`Cc1cc(N2CCCC2)c(C#N)c(C)n1`: the cytotoxicity at 70.5 h was found to be 17.6%.

`Cc1ccccc1C(NC(=O)NCC1(CO)CC1)C1CC1` (stereo not drawn): the cytotoxicity at 70.5 h is -1.18%.

In the case of `O=C(c1ccon1)N1CCN(c2ccncc2Cl)CC1`, the cytotoxicity at 70.5 h was -4.94%.

Take `Cc1cccc(CCC(=O)Nc2ccnn2C2CCS(=O)(=O)C2)c1` (stereo not drawn): the cytotoxicity at 70.5 h worked out at 17%.

With `COc1c(Cl)cccc1NCc1csc(C)n1`, the cytotoxicity at 70.5 h is -8.65%.

For the compound `CN(CCCNC(=O)C1CCc2cn[nH]c2C1)c1ccccc1` (stereo not drawn), the cytotoxicity at 70.5 h was -4.99%.

For the compound `CCOC(C)c1nc(CNc2cccc(Cl)c2OC)cs1` (stereo not drawn), the cytotoxicity at 70.5 h turned out to be 8.97%.

For the compound `Cc1csc(CNC(=O)NCC(C)Cn2nc(C)cc2C)n1` (stereo not drawn), the cytotoxicity at 70.5 h was -5.06%.

On to `O=C(Cc1cccnc1)NCCS(=O)(=O)c1ccccc1F`, for which the cytotoxicity at 70.5 h was -7.32%.

Take `CCC(NCCn1cc(C)cn1)C(=O)Nc1cc(C)on1` (stereo not drawn): the cytotoxicity at 70.5 h amounted to 10.8%.

Regarding `CSCCC(NC(N)=O)C(=O)NCc1cnn(-c2ccccc2)c1` (stereo not drawn), the cytotoxicity at 70.5 h amounted to 8.76%.

On to `CCn1cnnc1CNC(=O)N1CCOC(c2ccc(F)cc2)C1` (stereo not drawn), for which the cytotoxicity at 70.5 h was -3.32%.

As to `CC(Cc1cccc(F)c1)C(=O)NS(=O)(=O)c1cnn(C)c1` (stereo not drawn), the cytotoxicity at 70.5 h was -1.2%.

For `O=C(CC1CCCC1)NCCNCc1cccc2c1OCCO2`, the cytotoxicity at 70.5 h came out at 4.62%.

Consider `O=C(Nc1ccncc1)NC1CCN(c2ccccc2OC(F)F)C1` (stereo not drawn), for which the cytotoxicity at 70.5 h is 1.15%.

As to `COC(CNC(=O)c1ccc[nH]1)c1cccc(Cl)c1` (stereo not drawn), the cytotoxicity at 70.5 h was determined as 10.5%.

In the case of `CCN(Cc1ccoc1)c1ncc(S(N)(=O)=O)s1`, the cytotoxicity at 70.5 h is -7.46%.

`Cc1cc(CNCC2(O)CCOCC2)ccc1Br`: the cytotoxicity at 70.5 h came to 4.13%.

Consider `O=C(Nc1ccccn1)NC1CCN(c2ccccc2OC(F)F)C1` (stereo not drawn), for which the cytotoxicity at 70.5 h was -2.08%.

As for `COCCN1CCC(NC(=O)C/C=C/c2ccc(C(C)C)cc2)CC1`, the cytotoxicity at 70.5 h came to 2.87%.

Take `CC(C)c1ccc(/C=C/CC(=O)NC2CCN(C(N)=O)CC2)cc1`: the cytotoxicity at 70.5 h is -9.67%.

In the case of `CC(C(=O)NC1(C#N)CCCCC1)N1CCc2c(ncn2C2CC2)C1` (stereo not drawn), the cytotoxicity at 70.5 h is -8.12%.

In the case of `CCc1nc(CCNc2ncccc2C#N)sc1C`, the cytotoxicity at 70.5 h was -8.12%.

`Cc1cc(NC(=O)C(C)NCCn2cccn2)no1` (stereo not drawn): the cytotoxicity at 70.5 h is -0.681%.

As to `O=C(NCCNCc1cccc2c1OCCCO2)C1CCCC1`, the cytotoxicity at 70.5 h was determined as 14.5%.

Consider `COCCN1CCC(CNC(=O)c2ccnc(-n3ccnc3)c2)CC1`, for which the cytotoxicity at 70.5 h is -0.309%.

Take `CN(CCOc1ccc(F)cc1)S(=O)(=O)c1cnn(C)c1`: the cytotoxicity at 70.5 h is -8.4%.

With `CC(NC(=O)NCCCn1ccnc1)c1nncn1C` (stereo not drawn), the cytotoxicity at 70.5 h is -2.89%.

Regarding `NC(=O)C1CCN(C(=O)NC2CCc3cc(Cl)ccc32)CC1` (stereo not drawn), the cytotoxicity at 70.5 h is -7.29%.

For the compound `CC1CCN(C(=O)c2occc2COc2cccc(C#N)c2)CC1`, the cytotoxicity at 70.5 h is 8.42%.

Consider `COCCN(Cc1ccc(F)cc1Cl)C(=O)c1ccccn1`, for which the cytotoxicity at 70.5 h is 9.84%.

As to `CCCc1n[nH]c(C2CN(C(=O)Cc3ccc(C)nc3)CCO2)n1` (stereo not drawn), the cytotoxicity at 70.5 h is -1.25%.

Turning to `CN(Cc1cnn(C)c1)C1CCCN(Cc2noc(C3CC3)n2)C1` (stereo not drawn), the cytotoxicity at 70.5 h came to 50.1%.

Consider `CC1(NC(=O)Cc2csc(NC(=O)c3ccccc3)n2)CCS(=O)(=O)C1` (stereo not drawn), for which the cytotoxicity at 70.5 h is -71.2%.

For the compound `CCSc1cc(C(=O)NCc2ccc(C(=O)NC)cc2)ccn1`, the cytotoxicity at 70.5 h is -81.1%.

`O=C(NCCCn1cccn1)C1(c2cccc(Cl)c2)CC1`: the cytotoxicity at 70.5 h stood at 55.5%.

Take `CC(CN1CCCC1=O)NC(=O)c1ccc(-c2ccco2)[nH]c1=O` (stereo not drawn): the cytotoxicity at 70.5 h is -96.6%.

As for `Cc1ncc2c(n1)CN(Cc1nc(C)c(C)o1)CC2`, the cytotoxicity at 70.5 h was -100%.

`COCCOc1nc(-c2ccccc2Cl)no1`: the cytotoxicity at 70.5 h is -78.8%.

For `CC1(NC(=O)Cc2csc(-c3ccccc3Cl)n2)CCS(=O)(=O)C1` (stereo not drawn), the cytotoxicity at 70.5 h was -88.9%.

Consider `Cc1cc(NC2CCc3ncnn3C2)n2ncnc2n1` (stereo not drawn), for which the cytotoxicity at 70.5 h was -106%.

Regarding `Cc1n[nH]c(C2CN(CC(=O)NCCc3ccccc3C)CCO2)n1` (stereo not drawn), the cytotoxicity at 70.5 h is -109%.

For the compound `Cc1n[nH]c(C2CN(CC(=O)NCc3cccs3)CCO2)n1` (stereo not drawn), the cytotoxicity at 70.5 h is -86.1%.

For `O=C(NCc1ccco1)N1CCC(n2ccc(C(F)(F)F)n2)CC1`, the cytotoxicity at 70.5 h was -82.9%.

For `CCNC(=O)N1CCC(n2ccc(C(F)(F)F)n2)CC1`, the cytotoxicity at 70.5 h came to 38.9%.

As for `COCC(C)NC(=O)NCCCc1cc(N)n(-c2ccccc2)n1` (stereo not drawn), the cytotoxicity at 70.5 h was -108%.

As to `Cc1n[nH]c(C2CN(CC(=O)NCCc3ccccc3)CCO2)n1` (stereo not drawn), the cytotoxicity at 70.5 h amounted to 9%.

As to `CC(OCC(F)(F)F)C(=O)N1CCCC1` (stereo not drawn), the cytotoxicity at 70.5 h is -61.3%.

Consider `CCOc1cc(CN(C)CC(C)(C)O)ccc1OC(F)F`, for which the cytotoxicity at 70.5 h amounted to 4.76%.

Regarding `O=C(c1cc(Cl)c2c(c1)OCO2)N1CCN(c2ncccn2)CC1`, the cytotoxicity at 70.5 h stood at 30.1%.

For `O=S(=O)(NCC1COc2ccccc2C1)N1CCOCC1` (stereo not drawn), the cytotoxicity at 70.5 h was -3.96%.

Take `O=C(c1ccc(O)c(Cl)c1)N1CCN(c2nccs2)CC1`: the cytotoxicity at 70.5 h was -9.18%.

For `Cc1ccc(C(=O)NC2CCN(Cc3noc(C(C)(C)C)n3)CC2)s1`, the cytotoxicity at 70.5 h is -14.3%.

Take `Cc1ccc(C(=O)NC2CCN(Cc3noc(C(C)C)n3)CC2)s1`: the cytotoxicity at 70.5 h is -8.2%.

Consider `CCc1noc(CN2CCC(NC(=O)c3ccc(C)s3)CC2)n1`, for which the cytotoxicity at 70.5 h was -9.12%.

In the case of `Cc1cc(CN2CCN(C(=O)C(C(C)C)n3cncn3)CC2)on1` (stereo not drawn), the cytotoxicity at 70.5 h is -10.4%.

On to `Cc1ccc(-n2nnc(CC(=O)N3CCN(C(C)C)CC3)c2C)cc1`, for which the cytotoxicity at 70.5 h was -10.5%.

As to `Cc1cccc(C)c1OCC(O)CNCc1c(C)nn(C)c1N(C)C` (stereo not drawn), the cytotoxicity at 70.5 h was -4.45%.

Turning to `Cc1c(CC(=O)N2CCN(C(C)C)CC2)nnn1-c1ccccc1`, the cytotoxicity at 70.5 h turned out to be 23.6%.

Regarding `Cc1cccc(OCC(O)CNCc2c(C)nn(C)c2N(C)C)c1` (stereo not drawn), the cytotoxicity at 70.5 h is -8.26%.

With `CC(C)C(C(=O)N1CCN(Cc2ccccn2)CC1)n1cncn1` (stereo not drawn), the cytotoxicity at 70.5 h is -10.2%.

Take `Cc1oc(-c2ccsc2)nc1CC(=O)NCCCS(C)(=O)=O`: the cytotoxicity at 70.5 h came out at 15.4%.

For `Cc1oc(-c2ccsc2)nc1CC(=O)NCC(=O)Nc1cn[nH]c1`, the cytotoxicity at 70.5 h was -13%.

As for `Cc1cccc(-c2nc(CN3CC(n4nc(C)cc4C)C3)no2)c1`, the cytotoxicity at 70.5 h was -4.09%.

Take `CN(Cc1noc(C(C)(C)C)n1)Cc1ccccc1N1CCCC1`: the cytotoxicity at 70.5 h is -8.02%.

For the compound `Cn1nc2c(cc1=O)CN(Cc1nc(N)c3ccccc3n1)CC2`, the cytotoxicity at 70.5 h came out at 7.46%.

For `CCNC(=O)CCCC(=O)N1CCc2cc(Cl)cc(Cl)c2C1`, the cytotoxicity at 70.5 h was -4.11%.

On to `O=C(CCc1ccncc1)N1CCc2cc(Cl)cc(Cl)c2C1`, for which the cytotoxicity at 70.5 h stood at 17.4%.

For `Cc1noc(CN(Cc2cccs2)C2CC2)n1`, the cytotoxicity at 70.5 h came to 17.3%.

On to `COCCc1noc(CN2CCCC2c2noc(C(C)C)n2)n1` (stereo not drawn), for which the cytotoxicity at 70.5 h was found to be 17.1%.

As for `Cc1nn(C)c(N(C)C)c1CNCC(O)COc1cccc(F)c1` (stereo not drawn), the cytotoxicity at 70.5 h was -11.4%.

Consider `Cc1cnn(CCNCC(O)c2ccc(F)c(F)c2)c1` (stereo not drawn), for which the cytotoxicity at 70.5 h turned out to be 3.17%.

Turning to `Cc1cc(NC(=O)c2ccccc2Br)n(C)n1`, the cytotoxicity at 70.5 h came to 2.28%.

For the compound `COC(=O)c1cc(OC)c(OC)cc1NCc1c(C)noc1C`, the cytotoxicity at 70.5 h is -2.42%.

Consider `O=c1[nH]ncc(NCCOc2ccc3c(c2)OCO3)c1Cl`, for which the cytotoxicity at 70.5 h was -8.71%.

As to `Cc1cc(NC(=O)c2ccc(Br)cc2F)n(C)n1`, the cytotoxicity at 70.5 h turned out to be 12.5%.

As for `O=c1[nH]ncc(NCCOc2ccc3c(c2)CCC3)c1Cl`, the cytotoxicity at 70.5 h is -11.7%.

With `CN(CC(=O)Nc1cc(CC2CCCCC2)n[nH]1)S(C)(=O)=O`, the cytotoxicity at 70.5 h was -4.16%.

As to `c1ccc(-c2cc(CN3CCc4cncnc4C3)on2)cc1`, the cytotoxicity at 70.5 h was -4.72%.

For `Cc1ccc(-c2cc(CN3CCc4cnc(C)nc4C3)on2)cc1`, the cytotoxicity at 70.5 h is -10.1%.

Take `Cc1cnn(CCNCc2ccc(S(C)(=O)=O)cc2)c1`: the cytotoxicity at 70.5 h is -4.97%.

Consider `Cc1cnn(CCNCC(O)c2cccc(Br)c2)c1` (stereo not drawn), for which the cytotoxicity at 70.5 h is -8.97%.

Consider `Cc1c(Br)cccc1S(=O)(=O)NCc1ccnn1C`, for which the cytotoxicity at 70.5 h was -3.27%.

For the compound `COCCCNS(=O)(=O)c1cc(C)sc1C`, the cytotoxicity at 70.5 h is -6.05%.

In the case of `Cc1ccc(CN(C)C(=O)c2cccc(NC(N)=O)c2)o1`, the cytotoxicity at 70.5 h is -11.5%.

Take `COc1ccc(C(C)NC(=O)Nc2nccs2)cc1OC` (stereo not drawn): the cytotoxicity at 70.5 h is -8.99%.

As for `Cc1ccc(CN(C(=O)c2cccc(NC(N)=O)c2)C2CC2)o1`, the cytotoxicity at 70.5 h is -10.5%.

For `CC(C)N(C)C(=O)c1ccc(Cl)c(NC(=O)C2CCC2)c1`, the cytotoxicity at 70.5 h was 19.4%.

Take `CNC(=O)NC(=O)CCSc1ccccc1C`: the cytotoxicity at 70.5 h is -0.594%.

As for `CN1CCC(NC(=O)Cc2csc(C(C)(C)C)n2)CC1`, the cytotoxicity at 70.5 h was -10.5%.

On to `CC(C)N(C)C(=O)c1ccc(Cl)c(NC(=O)COCC2CC2)c1`, for which the cytotoxicity at 70.5 h was -6.46%.

On to `O=C(Nc1cc(-c2ccccc2)on1)N1CC[C@H](O)C1`, for which the cytotoxicity at 70.5 h is -1.65%.

With `NC1(c2nc(C(F)(F)F)cc(=O)[nH]2)CCCCC1`, the cytotoxicity at 70.5 h was determined as 0.93%.
